Residues, ends and D or L forms follow the SMILES beside them. *: point of attachment. Cbz = O=C(OCc1ccccc1)*; CH2Cl = ClC*

Here are results for 35 compounds from patent US9464064B2, “HCV helicase inhibitors and methods of use thereof” (University of Kansas, priority 2011, dated 2016).

This assay deals with T1, HCV NS3 helicase NS3h_1b(con1) (Hepatitis C virus genotype 1b, UniProt Q9WMX2).
T1 construct: truncated C-terminally His-tagged NS3 proteins lacking the N-terminal protease, called NS3h; His-tag (C); made in house
In words: MBHA screen of NCI mechanistic set library at 20 μM (percent inhibition, compound interference). The format is biochemical. Conditions: compounds at 20 μM; for Inh. (%) (Inhibition): calculated from Equation 1. An outline of the steps: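 Molecular beacon-based DNA unwinding assay; compounds screened at 20 μM in triplicate, with DMSO-only negative and 500 nM dT20 positive controls. Fluorescence (ex 643/em 670 nm) was read before and 30 min after adding ATP to 1 mM. Percent inhibition came from the change relative to DMSO controls; interference from pre-ATP fluorescence versus DMSO controls.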

[1] abbreviates: assay interference calculated with Equation 2 (fluorescence vs DMSO-only controls before ATP).
[2] abbreviates: MBHA with DNA substrate, assay interference calculated with Equation 2.

T1 sequence (Q9WMX2 1192-1657): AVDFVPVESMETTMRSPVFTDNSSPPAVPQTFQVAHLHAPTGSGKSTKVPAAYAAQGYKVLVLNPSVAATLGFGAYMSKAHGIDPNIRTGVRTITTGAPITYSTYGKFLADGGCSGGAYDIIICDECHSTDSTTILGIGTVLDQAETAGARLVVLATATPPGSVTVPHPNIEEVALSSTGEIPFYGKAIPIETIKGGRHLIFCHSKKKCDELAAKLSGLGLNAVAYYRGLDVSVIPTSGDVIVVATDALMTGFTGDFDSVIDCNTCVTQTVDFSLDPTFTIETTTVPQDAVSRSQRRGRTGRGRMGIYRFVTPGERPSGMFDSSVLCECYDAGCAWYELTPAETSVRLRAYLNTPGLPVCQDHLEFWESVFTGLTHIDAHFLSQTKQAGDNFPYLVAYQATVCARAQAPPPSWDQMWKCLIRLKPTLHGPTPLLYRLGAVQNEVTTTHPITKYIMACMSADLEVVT

As for `CC(=O)[O][Sn]([CH2]c1ccccc1)([CH2]c1ccccc1)[CH2]c1ccccc1` [Compound 164909], the “Inh. (%) (Inhibition)” value (MBHA with a DNA substrate) is listed as −20.2%. Also, the “Int.* (Ratio) (Interference)” value under setting [1] is 1.04 Ratio.

For the compound `CCC[CH2][Sn]([CH2]CCC)([CH2]CCC)[O]c1cc(Cl)c(Cl)cc1Cl` [Compound 164914], the “Inh. (%) (Inhibition)” value (MBHA with a DNA substrate) was 11.5%. Also, the “Int.* (Ratio) (Interference)” value under setting [1] was 0.91 Ratio.

For `COC(=O)[C@@]12OC[C@]34[C@H]([C@@H](O)[C@@H]1O)[C@@]1(C)CC(=O)C(O)=C(C)[C@@H]1C[C@H]3OC(=O)[C@H](OC(=O)/C=C(\C)C(C)C)[C@@H]24` [Compound 165563], the “Int.* (Ratio) (Interference)” value under setting [2] is listed as 0.95 Ratio. Besides, where the note is “MBHA with DNA substrate”, the “Inh. (%) (Inhibition)” value is recorded as 14.6%.

On to `CCSC(=O)N1c2ccc(OC)cc2C=CC1C#N` (stereo not shown) [Compound 165897], for which the “Int.* (Ratio) (Interference)” value under setting [2] was 1.20 Ratio. The “Inh. (%) (Inhibition)” value (MBHA with DNA substrate) is reported as −14.2%.

On to `CN1CCN(CCNc2ccc(CO)c3sc4ccccc4c(=O)c23)CC1` [Compound 166381], for which, under “MBHA with a DNA substrate”, the “Inh. (%) (Inhibition)” value is 7.6%. The “Int.* (Ratio) (Interference)” value under setting [1] is reported as 0.82 Ratio.

With `Cc1cc(N)c2ccccc2[n+]1CCCCCCCCCC[n+]1c(C)cc(N)c2ccccc21.[Cl-].[Cl-]` [Compound 166454], the “Int.* (Ratio) (Interference)” value under setting [2] is 0.18 Ratio. For the same compound, the “Inh. (%) (Inhibition)” value (MBHA with DNA substrate) is reported as 60.4%.

As to `CSc1ccc(NC(=O)CCl)cc1` [Compound 166464], under setting [2], the “Int.* (Ratio) (Interference)” value is listed as 1.00 Ratio. Besides, the “Inh. (%) (Inhibition)” value (MBHA with DNA substrate) is on record as 3.7%.

In the case of `CC1C(Oc2c(-c3ccc(O)c(O)c3)oc3c(O)cc(O)cc3c2=O)OC(O)C(O)C1O` (stereo not shown) [Compound 167410], the “Int.* (Ratio) (Interference)” value under setting [2] is listed as 0.87 Ratio. Further, the “Inh. (%) (Inhibition)” value (MBHA with DNA substrate) is listed as −13.8%.

Turning to `CCOC(=O)[C@H](CC(C)C)NC(=O)C(Cc1ccc(N(CCCl)CCCl)cc1)NC(C)=O` (stereo partly shown) [Compound 167780], under setting [2], the “Int.* (Ratio) (Interference)” value is recorded as 1.00 Ratio. Where the note is “MBHA with DNA substrate”, the “Inh. (%) (Inhibition)” value was 22.8%.

On to `CC(=O)OCCN1c2ccccc2Sc2cnccc21` [Compound 168221], for which the “Int.* (Ratio) (Interference)” value under setting [2] is 0.96 Ratio. The “Inh. (%) (Inhibition)” value (MBHA with DNA substrate) is recorded as −12.6%.

For `Cc1cc2nc(C=C(C(F)(F)F)C(F)(F)F)oc2cc1C` [Compound 168415], under setting [2], the “Int.* (Ratio) (Interference)” value is 0.95 Ratio. Besides, where the note is “MBHA with DNA substrate”, the “Inh. (%) (Inhibition)” value is 13.3%.

With `CCC[CH2][Pb]([Cl])([CH2]CCC)[CH2]CCC` [Compound 168597], the “Int.* (Ratio) (Interference)” value under setting [2] is 0.98 Ratio. Further, the “Inh. (%) (Inhibition)” value (MBHA with DNA substrate) is recorded as 2.6%.

As to `CNC(=S)N/N=C/c1ccc([N+](=O)[O-])s1` [Compound 169543], the “Inh. (%) (Inhibition)” value (MBHA with a DNA substrate) was 9.6%. Besides, under setting [1], the “Int.* (Ratio) (Interference)” value is reported as 1.02 Ratio.

Turning to `COC(=O)C1(C)CCCC2(C)c3cc(OC)ccc3C(=O)C(Br)C12` (stereo not shown) [Compound 169600], the “Int.* (Ratio) (Interference)” value under setting [2] is reported as 0.90 Ratio. Also, the “Inh. (%) (Inhibition)” value (MBHA with DNA substrate) is 0.0%.

As to `OCCNCCN1CCN(CCCN2c3ccccc3Sc3ccc(C(F)(F)F)cc32)CC1` [Compound 169676], the “Int.* (Ratio) (Interference)” value under setting [2] was 0.87 Ratio. In addition, for the setting “MBHA with DNA substrate”, the “Inh. (%) (Inhibition)” value is recorded as 18.3%.

On to `CC(C)C[C@H]1C(=O)N2CCC[C@H]2[C@]2(O)O[C@](NC(=O)[C@@H]3C=C4c5cccc6[nH]c(Br)c(c56)C[C@H]4N(C)C3)(C(C)C)C(=O)N12.CS(=O)(=O)O` [Compound 169774], for which the “Int.* (Ratio) (Interference)” value under setting [2] is recorded as 0.92 Ratio. For the same compound, the “Inh. (%) (Inhibition)” value (MBHA with DNA substrate) is −15.6%.

With `C[C@H](CN1CC(=O)NC(=O)C1)N1CC(=O)NC(=O)C1` [Compound 169779], the “Int.* (Ratio) (Interference)” value under setting [2] is listed as 1.12 Ratio. Further, the “Inh. (%) (Inhibition)” value (MBHA with DNA substrate) was −9.4%.

For `O=c1[nH]c2ccccc2n1C1CCN(CCCC(c2ccc(F)cc2)c2ccc(F)cc2)CC1` [Compound 170984], under setting [2], the “Int.* (Ratio) (Interference)” value is on record as 0.95 Ratio. For the setting “MBHA with DNA substrate”, the “Inh. (%) (Inhibition)” value is 4.7%.

For the compound `COC(=O)[C@@]12OC[C@]34[C@H]([C@@H](O)[C@@H]1O)[C@@]1(C)CC(=O)C(O)=C(C)[C@@H]1C[C@H]3OC(=O)[C@H](OC(=O)C=C(C)C)[C@@H]24` [Compound 172924], the “Int.* (Ratio) (Interference)” value under setting [2] was 1.01 Ratio. Where the note is “MBHA with DNA substrate”, the “Inh. (%) (Inhibition)” value was 13.3%.

For `CC(=O)[O][Pb]([O]C(C)=O)([c]1ccccc1)[c]1ccccc1` [Compound 173046], the “Int.* (Ratio) (Interference)” value under setting [2] is reported as 0.93 Ratio. The “Inh. (%) (Inhibition)” value (MBHA with DNA substrate) is −12.2%.

`CC(C)CC(NC(=O)OCc1ccccc1)C(=O)NC(Cc1ccccc1)C(=O)CCl` (stereo not drawn) [Compound 173904] (Cbz-Leu-Phe-CH2Cl; configuration not given here): under setting [2], the “Int.* (Ratio) (Interference)” value is 1.09 Ratio. In addition, the “Inh. (%) (Inhibition)” value (MBHA with DNA substrate) was 1.4%.

As for `CC(=O)NC(CC(C)C)C(=O)NC(Cc1ccccc1)C(=O)CCl` (stereo not drawn) [Compound 173905] (Ac-Leu-Phe-CH2Cl; configuration not given here), the “Int.* (Ratio) (Interference)” value under setting [2] was 1.11 Ratio. In addition, the “Inh. (%) (Inhibition)” value (MBHA with DNA substrate) is given as −12.0%.

Regarding `CN(Cc1cnc2nc(N)nc(N)c2n1)c1ccc(C(=O)NC(CCC(=O)O)C(=O)O)c2ccccc12` (stereo not shown) [Compound 174121], under setting [2], the “Int.* (Ratio) (Interference)” value is reported as 0.91 Ratio. The “Inh. (%) (Inhibition)” value (MBHA with DNA substrate) was −13.1%.

Take `[Cl][Hg][c]1ccc2ccccc2c1` [Compound 174163]: under setting [2], the “Int.* (Ratio) (Interference)” value is on record as 1.00 Ratio. Also, under “MBHA with DNA substrate”, the “Inh. (%) (Inhibition)” value was −18.5%.

With `CC(=O)[O][Hg][c]1c(C)c(C)c(C)c(C)c1C` [Compound 174176], the “Int.* (Ratio) (Interference)” value under setting [2] is listed as 1.04 Ratio. Besides, the “Inh. (%) (Inhibition)” value (MBHA with DNA substrate) was 6.0%.

For `CCCC(=O)[O-].[Na+]` [Compound 174280], the “Int.* (Ratio) (Interference)” value under setting [2] is recorded as 0.90 Ratio. Further, where the note is “MBHA with DNA substrate”, the “Inh. (%) (Inhibition)” value is recorded as 1.1%.

`N=N/C(=C\c1c(O)[nH]c2ccccc12)c1ccccc1` [Compound 175274]: the “Inh. (%) (Inhibition)” value (MBHA with a DNA substrate) is 7.0%. Also, the “Int.* (Ratio) (Interference)” value under setting [1] is recorded as 1.09 Ratio.

For the compound `COc1ccc(C=CC(=O)Oc2cc(O)cc(O)c2)cc1` [Compound 175296], the “Int.* (Ratio) (Interference)” value under setting [2] is given as 0.90 Ratio. Further, the “Inh. (%) (Inhibition)” value (MBHA with DNA substrate) is 4.7%.

For the compound `Cc1ccc(C2NC(=O)c3ccccc3N2)s1` (stereo not shown) [Compound 175634], the “Int.* (Ratio) (Interference)” value under setting [2] is 0.93 Ratio. Also, for the setting “MBHA with DNA substrate”, the “Inh. (%) (Inhibition)” value is on record as 1.5%.

As to `O=C1NC(c2cccc3ccccc23)Nc2ccc(Cl)cc21` (stereo not shown) [Compound 175636], the “Inh. (%) (Inhibition)” value (MBHA with a DNA substrate) is on record as −5.0%. The “Int.* (Ratio) (Interference)” value under setting [1] was 0.96 Ratio.

`N[C@H](C(=O)O)[C@H]1ON=C(Cl)[C@H]1O` [Compound 176324]: the “Inh. (%) (Inhibition)” value (MBHA with a DNA substrate) is −6.8%. Further, under setting [1], the “Int.* (Ratio) (Interference)” value was 1.02 Ratio.

On to `C(=C/c1nc2ccccc2o1)/c1ccc2c(c1)OCO2` [Compound 176655], for which the “Int.* (Ratio) (Interference)” value under setting [2] is on record as 1.08 Ratio. The “Inh. (%) (Inhibition)” value (MBHA with DNA substrate) is on record as 0.3%.

As for `NC(N)=NCCCS(=O)(=O)Nc1ccc(Nc2c3ccccc3nc3cc([N+](=O)[O-])ccc23)cc1` [Compound 177365], the “Inh. (%) (Inhibition)” value (MBHA with a DNA substrate) is 9.2%. Moreover, the “Int.* (Ratio) (Interference)” value under setting [1] was 0.49 Ratio.

On to `COc1ccc(O)c2c(=O)c3c(OC)cc4c(c3oc12)[C@@H]1C=CO[C@@H]1O4` [Compound 178249], for which the “Int.* (Ratio) (Interference)” value under setting [2] is 0.87 Ratio. Besides, the “Inh. (%) (Inhibition)” value (MBHA with DNA substrate) is listed as 2.4%.

For the compound `CC/C(=C(\c1ccccc1)c1ccc(OCCN(C)C)cc1)c1ccccc1.O=C(O)CC(O)(CC(=O)O)C(=O)O` [Compound 180973], the “Int.* (Ratio) (Interference)” value under setting [2] was 0.90 Ratio. Also, the “Inh. (%) (Inhibition)” value (MBHA with DNA substrate) is 13.5%.
